ChEMBL document CHEMBL5131574, “Discovery of Inhibitors of DNA Methyltransferase 2, an Epitranscriptomic Modulator and Potential Target for Cancer Treatment” (J Med Chem, 2022)

Assays:
[1] = Cytotoxicity against human HEK293 cells assessed as cell viability at 100 uM measured after 24 hrs by MTT assay; type: toxicity, cell-based
[2] = biological target: T1, tRNA (cytosine(38)-C(5))-methyltransferase (Homo sapiens, UniProt O14717); assay: Binding affinity to full length human N-terminal his6-tagged DNMT2 expressed in Escherichia coli Rosetta2(DE3)pLysS assessed as dissociation constant at 100 uM by isothermal titration calorimetry assay
T1 sequence (O14717 whole entry): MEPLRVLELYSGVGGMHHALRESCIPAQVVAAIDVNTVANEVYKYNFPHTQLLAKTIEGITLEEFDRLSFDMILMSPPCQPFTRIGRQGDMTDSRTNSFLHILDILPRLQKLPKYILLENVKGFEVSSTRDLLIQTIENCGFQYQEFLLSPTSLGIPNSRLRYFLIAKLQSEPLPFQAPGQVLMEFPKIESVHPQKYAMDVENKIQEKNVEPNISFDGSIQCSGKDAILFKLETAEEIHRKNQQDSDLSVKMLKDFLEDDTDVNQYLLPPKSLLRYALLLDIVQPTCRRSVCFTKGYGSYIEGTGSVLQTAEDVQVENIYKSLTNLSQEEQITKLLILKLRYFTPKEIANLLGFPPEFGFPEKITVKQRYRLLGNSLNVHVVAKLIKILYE

[3] = biological target: T1, tRNA (cytosine(38)-C(5))-methyltransferase; assay: Inhibition of full length human N-terminal his6-tagged DNMT2 expressed in Escherichia coli Rosetta2(DE3)pLysS by […] assay
[4] = Selectivity ratio of Kd for binding affinity to full length human N-terminal his6-tagged DNMT2 expressed in Escherichia coli Rosetta2(DE3)pLysS assessed as dissociation constant to IC50 for inhibition of full length human N-terminal his6-tagged DNMT2 expressed in Escherichia coli Rosetta2(DE3)pLysS
[5] = biological target: T2, tRNA (cytosine(38)-C(5))-methyltransferase (Homo sapiens) (UniProt O14717); assay: Binding affinity to full length human N-terminal his6-tagged DNMT2 expressed in Escherichia coli Rosetta2(DE3)pLysS assessed as gibbs free energy change at 100 uM by isothermal titration calorimetry assay
T2 sequence (whole entry): T1 sequence (O14717 whole entry)

[6] = biological target: T2, tRNA (cytosine(38)-C(5))-methyltransferase (Homo sapiens); assay: Binding affinity to full length human N-terminal his6-tagged DNMT2 expressed in Escherichia coli Rosetta2(DE3)pLysS assessed as change in enthalpy change at 100 uM by isothermal titration calorimetry assay
[7] = biological target: T2, tRNA (cytosine(38)-C(5))-methyltransferase (Homo sapiens); assay: Binding affinity to full length human N-terminal his6-tagged DNMT2 expressed in Escherichia coli Rosetta2(DE3)pLysS assessed as change in entropy at 100 uM by isothermal titration calorimetry assay
[8] = biological target: DNA (cytosine-5)-methyltransferase 3A (Homo sapiens) (UniProt Q9Y6K1); assay: Inhibition of recombinant human DNMT3A-3L expressed in Escherichia coli Rosetta2(DE3)pLysS at 100 uM using Poly(dI-dC)-Poly(dI-dC) as substrate measured at 150 mins by liquid scintillation counting analysis
[9] = biological target: RNA cytosine C(5)-methyltransferase NSUN2 (Homo sapiens) (UniProt Q08J23); assay: Inhibition of full length recombinant human NSUN2 expressed in Escherichia coli Rosetta2(DE3)pLysS at 100 uM measured at 20 mins by liquid scintillation counting analysis
[10] = biological target: T3, tRNA (cytosine(72)-C(5))-methyltransferase NSUN6 (Homo sapiens) (UniProt Q8TEA1); assay: Inhibition of full length human NSUN6 expressed in Escherichia coli Rosetta2(DE3)pLysS at 100 uM measured at 20 mins by liquid scintillation counting analysis
T3 sequence (whole entry): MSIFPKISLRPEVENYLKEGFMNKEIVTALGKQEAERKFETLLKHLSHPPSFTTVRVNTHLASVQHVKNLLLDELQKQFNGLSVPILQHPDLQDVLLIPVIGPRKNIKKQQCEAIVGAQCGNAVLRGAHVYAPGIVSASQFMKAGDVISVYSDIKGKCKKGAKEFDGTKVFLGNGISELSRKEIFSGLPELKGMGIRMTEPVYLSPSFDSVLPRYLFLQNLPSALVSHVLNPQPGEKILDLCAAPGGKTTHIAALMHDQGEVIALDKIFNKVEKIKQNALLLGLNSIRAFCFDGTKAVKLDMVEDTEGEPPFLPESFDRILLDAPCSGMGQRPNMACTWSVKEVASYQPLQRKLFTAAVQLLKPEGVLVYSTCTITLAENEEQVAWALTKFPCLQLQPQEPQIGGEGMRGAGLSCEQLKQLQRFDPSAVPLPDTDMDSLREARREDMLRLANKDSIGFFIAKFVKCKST

[11] = biological target: T4, Histone-lysine N-methyltransferase EHMT2 (Homo sapiens) (UniProt Q96KQ7); assay: Inhibition of recombinant human EHMT2 G9a expressed in Escherichia coli Rosetta2(DE3)pLysS at 100 uM using histone H3 as substrate measured at 120 mins by liquid scintillation counting analysis
T4 sequence (whole entry): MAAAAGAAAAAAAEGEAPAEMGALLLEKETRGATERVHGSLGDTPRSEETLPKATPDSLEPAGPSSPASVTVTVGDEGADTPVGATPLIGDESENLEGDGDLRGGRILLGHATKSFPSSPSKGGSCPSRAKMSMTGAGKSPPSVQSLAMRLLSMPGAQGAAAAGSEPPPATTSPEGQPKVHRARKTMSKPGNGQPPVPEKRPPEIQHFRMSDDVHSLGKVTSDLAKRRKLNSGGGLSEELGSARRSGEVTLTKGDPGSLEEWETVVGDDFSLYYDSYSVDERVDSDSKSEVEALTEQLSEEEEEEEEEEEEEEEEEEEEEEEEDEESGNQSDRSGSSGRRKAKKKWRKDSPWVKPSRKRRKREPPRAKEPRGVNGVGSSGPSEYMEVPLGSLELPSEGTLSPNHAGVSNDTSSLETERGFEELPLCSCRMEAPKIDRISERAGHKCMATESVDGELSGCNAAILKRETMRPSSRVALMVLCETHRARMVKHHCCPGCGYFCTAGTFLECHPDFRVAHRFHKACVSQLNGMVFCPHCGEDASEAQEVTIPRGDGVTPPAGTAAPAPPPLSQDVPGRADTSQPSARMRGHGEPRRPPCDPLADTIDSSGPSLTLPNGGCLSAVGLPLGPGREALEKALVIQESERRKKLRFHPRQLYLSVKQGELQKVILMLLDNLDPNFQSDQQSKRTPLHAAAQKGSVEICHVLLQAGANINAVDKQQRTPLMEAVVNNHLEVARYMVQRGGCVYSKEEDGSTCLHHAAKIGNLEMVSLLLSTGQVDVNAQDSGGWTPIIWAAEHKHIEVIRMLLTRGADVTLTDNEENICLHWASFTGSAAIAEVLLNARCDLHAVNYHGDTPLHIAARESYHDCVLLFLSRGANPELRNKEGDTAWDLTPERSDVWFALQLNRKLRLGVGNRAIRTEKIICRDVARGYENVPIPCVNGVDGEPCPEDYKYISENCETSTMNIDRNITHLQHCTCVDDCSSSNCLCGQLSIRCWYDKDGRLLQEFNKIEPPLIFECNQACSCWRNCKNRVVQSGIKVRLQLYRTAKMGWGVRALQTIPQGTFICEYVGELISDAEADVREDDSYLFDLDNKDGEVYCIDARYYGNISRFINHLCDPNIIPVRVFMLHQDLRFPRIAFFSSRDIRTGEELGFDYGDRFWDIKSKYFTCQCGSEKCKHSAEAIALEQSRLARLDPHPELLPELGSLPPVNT

[12] = biological target: T2, tRNA (cytosine(38)-C(5))-methyltransferase (Homo sapiens); assay: Inhibition of full length human N-terminal his6-tagged DNMT2 expressed in Escherichia coli Rosetta2(DE3)pLysS at 100 uM by liquid scintillation counting analysis
[13] = biological target: T2, tRNA (cytosine(38)-C(5))-methyltransferase (Homo sapiens); assay: Inhibition of DNMT2-mediated tRNA methylation in human HEK293 cells assessed as reduction in m5C at C38 of tRNA by measuring m5C level at 100 uM incubated for 24 hrs by bisulfite sequencing analysis; type: cell-based
[14] = Stability of the compound in TRIS buffer at 7.4 pH assessed as hydrolysis of ethyl ester at 100 uM incubated for 24 hrs by LC-MS analysis; type: physicochemical; conditions: pH 7.4, read-out: Drug degradation
[15] = Permeability of the compound in human Caco-2 cells assessed as compound remaining by measuring ester form of the acceptor compartment incubated for 24 hrs by LC/MS analysis; type: ADME, cell-based; conditions: caco-2, 24 h
[16] = Permeability of the compound in human Caco-2 cells assessed as compound remaining by measuring ester form of the donor compartment incubated for 24 hrs by LC/MS analysis; type: ADME, cell-based; conditions: read-out: Activity
[17] = Permeability of the compound in human Caco-2 cells assessed as compound remaining by measuring acid form of the donor compartment incubated for 24 hrs by LC/MS analysis; type: ADME, cell-based; conditions: caco-2, 24 h

Chain of DNA (cytosine-5)-methyltransferase 3A (Homo sapiens) (Q9Y6K1 whole entry, looked up): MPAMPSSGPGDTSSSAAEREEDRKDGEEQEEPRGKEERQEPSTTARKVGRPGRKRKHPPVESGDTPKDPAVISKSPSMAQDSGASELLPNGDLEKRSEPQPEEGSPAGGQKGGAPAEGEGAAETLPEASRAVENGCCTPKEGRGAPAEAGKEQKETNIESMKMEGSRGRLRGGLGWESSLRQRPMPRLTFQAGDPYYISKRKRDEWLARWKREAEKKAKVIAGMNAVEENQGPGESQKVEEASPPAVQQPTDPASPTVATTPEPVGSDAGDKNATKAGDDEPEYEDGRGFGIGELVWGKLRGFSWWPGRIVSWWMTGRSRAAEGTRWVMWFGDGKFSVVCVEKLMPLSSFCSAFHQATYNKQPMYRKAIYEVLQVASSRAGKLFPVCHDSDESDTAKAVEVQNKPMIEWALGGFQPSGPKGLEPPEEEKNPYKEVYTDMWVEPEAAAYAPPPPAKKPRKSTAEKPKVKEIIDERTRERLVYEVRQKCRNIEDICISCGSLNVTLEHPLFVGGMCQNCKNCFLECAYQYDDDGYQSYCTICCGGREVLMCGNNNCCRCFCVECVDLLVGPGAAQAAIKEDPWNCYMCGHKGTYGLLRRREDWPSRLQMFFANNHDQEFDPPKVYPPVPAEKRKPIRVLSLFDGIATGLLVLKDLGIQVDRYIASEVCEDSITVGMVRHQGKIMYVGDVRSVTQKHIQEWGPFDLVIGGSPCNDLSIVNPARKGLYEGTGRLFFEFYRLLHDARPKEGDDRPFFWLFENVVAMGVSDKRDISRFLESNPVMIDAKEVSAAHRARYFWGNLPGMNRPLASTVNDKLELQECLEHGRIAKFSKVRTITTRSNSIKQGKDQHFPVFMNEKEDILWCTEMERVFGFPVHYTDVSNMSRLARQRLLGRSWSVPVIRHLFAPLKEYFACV
Chain of RNA cytosine C(5)-methyltransferase NSUN2 (Homo sapiens) (Q08J23 whole entry): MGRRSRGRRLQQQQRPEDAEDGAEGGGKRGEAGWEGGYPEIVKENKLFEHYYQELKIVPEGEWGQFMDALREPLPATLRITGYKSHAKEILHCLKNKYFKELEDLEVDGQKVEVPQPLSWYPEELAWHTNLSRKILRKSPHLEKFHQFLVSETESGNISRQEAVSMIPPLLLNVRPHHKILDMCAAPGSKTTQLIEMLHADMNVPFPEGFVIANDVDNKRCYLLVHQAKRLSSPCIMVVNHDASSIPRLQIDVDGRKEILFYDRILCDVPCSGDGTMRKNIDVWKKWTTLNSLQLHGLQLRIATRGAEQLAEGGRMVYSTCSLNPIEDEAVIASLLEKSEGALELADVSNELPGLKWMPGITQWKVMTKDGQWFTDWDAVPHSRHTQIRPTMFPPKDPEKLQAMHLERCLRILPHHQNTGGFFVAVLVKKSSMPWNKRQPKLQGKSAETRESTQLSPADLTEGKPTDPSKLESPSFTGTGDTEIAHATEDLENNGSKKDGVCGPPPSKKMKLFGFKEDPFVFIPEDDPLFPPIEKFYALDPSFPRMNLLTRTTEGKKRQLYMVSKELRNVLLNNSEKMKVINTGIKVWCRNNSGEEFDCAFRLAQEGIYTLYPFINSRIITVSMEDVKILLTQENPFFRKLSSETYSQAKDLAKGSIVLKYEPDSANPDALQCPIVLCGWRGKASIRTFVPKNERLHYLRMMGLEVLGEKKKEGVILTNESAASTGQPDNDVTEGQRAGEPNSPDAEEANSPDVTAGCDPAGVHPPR

SMILES	Kd [2] [µM]	IC50 [3] [µM]	Selectivity ratio [4]	deltaG [5] [kcal/mol]	deltaH [6] [kcal/mol]	-TdeltaS [7] [kcal/mol]	inhibition [8] [%]	inhibition [9] [%]	inhibition [10] [%]	inhibition [11] [%]	inhibition [12] [%]	inhibition [13] [%]	degraded at 24 h, 100 µM [14] [%]	Activity [15] [%]	remaining at 24 h [16] [%]	Activity [17]	CC50 at 24 h [1] [µM]
CCCN(CC[C@H](N)C(=O)O)C[C@H]1O[C@@H](n2cnc3c(N)ncnc32)[C@H](O)[C@@H]1O	–	–	–	–	–	–	–	–	–	–	–	–	–	–	–	–	> 500
Nc1ncnc2c1ncn2[C@@H]1O[C@H](C[C@@H](N)CC[C@H](N)C(=O)O)[C@@H](O)[C@H]1O [SINEFUNGIN]	7.5	13.2	2	-7	-5.86	-1.15	98	77.1	70.2	43	83.5	94	–	–	–	–	> 500
CCC#CCN(CC[C@H](N)C(=O)O)C[C@H]1O[C@@H](n2cnc3c(N)ncnc32)[C@H](O)[C@@H]1O	–	–	–	–	–	–	95.3	–	22.7	32	–	–	–	–	–	–	–
C#CC(C)N(CC[C@H](N)C(=O)OCC)C[C@H]1O[C@@H](n2cnc3c(N)ncnc32)[C@H](O)[C@@H]1O (some centres undefined)	–	–	–	–	–	–	–	–	–	–	–	–	60	2	20	<= 78%	> 500
C#CC(C)N(CC[C@H](N)C(=O)O)C[C@H]1O[C@@H](n2cnc3c(N)ncnc32)[C@H](O)[C@@H]1O (some centres undefined)	–	–	–	–	–	–	84.2	–	–	71	–	–	–	0.6	–	–	> 500

Second part, led by results:

Kd [2] [µM]	IC50 [3] [µM]	Selectivity ratio [4]	deltaG [5] [kcal/mol]	deltaH [6] [kcal/mol]	-TdeltaS [7] [kcal/mol]	inhibition [8] [%]	inhibition [9] [%]	inhibition [10] [%]	inhibition [11] [%]	inhibition [12] [%]	inhibition [13] [%]	degraded at 24 h, 100 µM [14] [%]	Activity [15] [%]	remaining at 24 h [16] [%]	Activity [17]	SMILES	CC50 at 24 h [1] [µM]
13.6	15.8	–	-6.64	-13.2	6.57	96.7	97.3	99.6	94.3	85.7	–	–	–	–	–	Nc1ncnc2c1ncn2[C@@H]1O[C@H](CSCC[C@H](N)C(=O)O)[C@@H](O)[C@H]1O [S-ADENOSYLHOMOCYSTEINE]	–
–	–	–	–	–	–	93.9	–	12.9	37.6	–	–	–	–	–	–	CC#CCN(CC[C@H](N)C(=O)O)C[C@H]1O[C@@H](n2cnc3c(N)ncnc32)[C@H](O)[C@@H]1O	–
11.4	77.1	7	-6.74	-9.03	2.29	97.6	–	25.9	22.8	72.2	–	–	–	–	–	C#CCN(CC[C@H](N)C(=O)O)C[C@H]1O[C@@H](n2cnc3c(N)ncnc32)[C@H](O)[C@@H]1O	–
